# Patent US10098888B2, “Substituted benzene compounds” (Epizyme, Inc., priority 2012, dated 2018)
# Where two headings read alike, the source gives them in different places.
# Columns and labels:
# [1] = tested on: human cytochromes P450 (CYP); assay: Assessment of CYP inhibition, overall conclusion on reversible inhibition; details: human liver microsomes
# [2] = tested on: CYP3A4/5; assay: Time-Dependent Inactivation (TDI) assessment of CYP3A4/5; format: in vitro ADME, human; details: for inactivation of CYP3A4/5 (conclusion in words): using midazolam as probe
# [3] = tested on: WSU-DLCL2 cells; assay: Cell Proliferation Analysis (WSU-DLCL2, Cell Titer Glo); format: cell-based; details: Homo sapiens, WSUDLCL2, 6 days
# [4] = tested on: CYP1A; assay: CYP induction in cryopreserved human hepatocytes, CYP1A; details: 48 hours, positive control β-naphthoflavone
# [5] = tested on: CYP2B6; assay: CYP induction in cryopreserved human hepatocytes, CYP2B6; details: 1 μm, 48 hours, positive control phenobarbital
# [6] = tested on: Karpas-422 xenograft; assay: Efficacy study in Karpas-422 xenograft model; format: in vivo; details: mice, p.o. BID, up to 28 days
# Description: (§1) The animals were fed ad libitum water (reverse osmosis 1 ppm Cl) and NIH 31 Modified and Irradiated Lab Diet® consisting of 18.0% crude protein, 5.0% crude fat, and 5.0% crude fiber. The mice were housed on irradiated Enrich-o'cobs™ bedding in static microisolators on a 12-hour light cycle at 20-22° C. (68-72° F.) and 40-60% humidity. Alf procedures complied with the recommendations of the Guide for Care and Use of Laboratory Animals with respect to restraint, husbandry, surgical procedures, feed and fluid regulation, and veterinary care.
# Human lymphoma cell lines line were obtained from different sources (ATCC, DSMZ), e.g., Karpas-422 obtained from DSMZ. […]
# Human lymphoma cell lines, e.g., Karpas-422 cells, were harvested during mid-log phase growth, and re-suspended in […] base media and 50% Matrigel™ (BD Biosciences) (RPMI:Matrigel=1:1). […] Tumor size, in mm^3, was calculated from: […]
# (§2) Mice were treated at compound doses ranging from 62.5-500 mg/kg on a BID (2 times a day every 12 h) schedule for various amounts of days by oral gavage. Each dose was delivered in a volume of 0.2 mL/20 g mouse (10 mL/kg), and adjusted for the last recorded weight of individual animals. […]
# Treatment efficacy was determined on the last treatment day, MTV(n), the median tumor volume for the number of animals, n, evaluable on the last day, was determined for each group. […]
# [7] = Tolerability in Karpas-422 xenograft tumor bearing mice (body weight); format: in vivo; details: Karpas-422 xenograft mice, p.o. BID, up to 28 days
# Description: as §1
# Test compounds were stored at room temperature and protected from light. On each treatment day, fresh compound formulations were prepared by suspending the powders in 0.5% sodium carboxymethylcellulose (NaCMC) and 0.1% Tween® 80 in deionized water. […]
# as §2
# In order to test whether a compound could induce an anti-tumor effect in vivo, Karpas-422 xenograft tumor bearing mice were treated with a compound at, e.g., 62.5, 125, 250, or 500 mg/kg BID for 28 days. […] The tumor growth over the treatment course of 28 days for vehicle and test compound treated groups was measured.
# [8] = pH 7.4, probe testosterone, time-dependent inactivation of CYP3A4/5, human liver microsomes, read-out: KI
SMILES,reversible CYP inhibition (conclusion in words) [1],"Ki [2, 8] [µM]",inactivation of CYP3A4/5 (conclusion in words) [2],IC50 [3] [µM],CYP1A % Positive Control ([4]; 1 μm) [%],CYP1A % Positive Control ([4]; 10 μm) [%],CYP2B6 % Positive Control [5] [%],"Ki ([2]; human, human liver microsomes, pH 7.4, time-dependent inactivation of CYP3A4/5, footnote ** not given, read-out: KI (value in parentheses marked **)) [µM]",antitumor effect in Karpas-422 xenograft model [6],tolerability [7]
"CCN(c1cc(C#CCN2CCOCC2)cc(C(=O)NCc2c(C)cc(C)[nH]c2=O)c1C)[C@H]1CC[C@H](N(C)CCOC)CC1 [Compound 2, N-((4,6-dimethyl-2-oxo-1,2-dihydropyridin-3-yl)methyl)-3-(ethyl((trans)-4-((2-methoxyethyl)(methyl)amino)cyclohexyl)amino)-2-methyl-5-(3-morpholinoprop-1-yn-1-yl)benzamide]",no significant reversible inhibition,22.3,"time-, concentration-, and NADPII-dependent inactivation of CYP3A4/5",0.385,–,–,–,–,–,–
"CCN(c1cc(C#CC2CCN(C)CC2)cc(C(=O)NCc2c(C)cc(C)[nH]c2=O)c1C)C1CCOCC1 [Compound 105, N-((4,6-Dimethyl-2-oxo-1,2-dihydropyridin-3-yl)methyl)-3-(ethyl(tetrahydro-2H-pyran-4-yl)amino)-2-methyl-5-((1-methylpiperidin-4-yl)ethynyl)benzamide]",potentially significant inhibition of CYP2D6 and CYP3A4 (midazolam),10.2,"time-, concentration-, and NADPII-dependent inactivation of CYP3A4/5",–,3.0,4.4,–,–,–,–
"CCN(c1cc(-c2ccc(OCCOC)cc2)cc(C(=O)NCc2c(C)cc(C)[nH]c2=O)c1C)[C@H]1CC[C@H](N(C)C)CC1 [Compound 1, N-((4,6-dimethyl-2-oxo-1,2-dihydropyridin-3-yl)methyl)-5-(((trans)-4-(dimethytamino)-cyclohexyl)(ethyl)-amino)-4′-(2-methoxyethoxy)-4-methyl-[1,1′-biphenyl]-3-carboxamide]",no significant reversible inhibition,6.4,"time-, concentration-, and NADPII-dependent inactivation of CYP3A4/5",–,2.8,3.0,18.0,3.3,tumor stasis and regression,well tolerated
